Series [1] has as its system db/db mice. Nature of the series: Effect of RXR agonist on db/db mice. The format is in vivo. As to conditions: 2.5, 5, 10 and 15 mg/kg, BID, po. As to the method:
The male db/db and lean mice were procured from Jackson Laboratory, US laboratories, acclimatized for a week, were fed a standard laboratory diet. The lean control and the db/db mice were 8 weeks old at the start of the study and were randomized to either vehicle or drug (Compound 40, 2.5, 5, 10 and 15 mg/kg, BID, po) treatment groups by body weight, fed glucose and glucose AUC during an oral glucose tolerance test. The treatment was continued for 8 weeks. Body weight, fasting and fed glucose and fast triglycerides (tail snip) were monitored weekly. At the end of week 8 of the treatment, glucose and insulin HbAlc levels were followed at different time intervals. Blood samples collected from tail nipping method were subjected at the end of week 7 of treatment period measured for HbAlc levels by DCA vantage (SIEMENS).
Assessment of 24 h glucose profile: Fed state blood samples were collected by tail nipping method and measured for glucose levels at every 2 h time intervals up to 8 h and then followed by 4 h intervals at the end of week 7 of treatment.

Series [2] concerns DIO mice. Put plainly: Effect of RXR agonist on DIO mice (high fat diet). It counts as in vivo, male C57BL/6J mice. Here is the method: Six week old male C57BL/6J mice were selected, acclimatized for a period of 1 week, Animals were assigned to either chow (10% kcal from fat) or high fat diet (HFD) (D12492; 60% kcal from fat), Research Diets, Inc., New Jersey, USA. Animals were housed in polypropylene cages and maintained at 23±1° C. at 60±10% humidity and 12 hour cycles of light and dark with free access to feed and water (ad libitum). After 11 weeks of the diet intervention, the HFD fed animals were assigned to specific treatment groups based upon body weight, glucose AUC during OGTT, fasting and fed blood glucose and fasting TG. The lean control mice (n=10) were fed with normal chow diet while the treatment group (n=10) and HFD Control (n=10) with high fat diet throughout the experimental period. Treatment group received Compound 40 at a dose of 5-20 mg/kg b.wt, once daily, po as suspension in 1% MC (methyl cellulose) as vehicle. Lean control and HFD controls animals were administered with vehicle.
Weekly body weight & daily feed consumption was recorded. The blood collected from tail vein was subjected for estimation of glucose and TG using Co-agucheck TG strip. OGTT was performed in 6 h fasted mice with 2 g/kg, of oral glucose challenge after 9 weeks of treatment.
Measurement of Thermogenesis: Body temperatures were assessed at the end of treatment period using a rectal probe. For the cold exposure experiment, mice were housed individually and transferred to a cold environment with an ambient temperature of 4° C. Temperature was measured every 15 min for 75 min and then brought to room temperature, then rectal temperature was measured for further 20 min with 10 min interval. After 10 weeks of treatment, blood was collected, from retro-orbital bleeding, for biochemical measurements. Then animals were euthanized and necropsied, the liver was excised immediately, weighed and taken to estimate liver triglyceride (TG). Different adipose depots were separated and weighed.
Animals were sacrificed after terminal measurement of fasting glycerol, free fatty acid, cholesterol, LDL levels.

Series [3] relates to MIA PaCa-2 cells. Put plainly: Caspase-3 activity (Ac-DEVD-R110 cleavage) in MIA PaCa-2 cells. The format is cell-based. As to the method: Caspase-3 activity was measured using its ability to cleave its substrate (Ac-DEVD-R110). Increased Caspase-3 activity would lead to higher release of fluorescent R110 which was measured at 485 nm excitation and 530 nm emission. Activity of caspase-3 (as nano-moles of R110 released) was normalized to total cellular protein. […] Cell death was measured by increased levels of DNA fragments as per manufacturer's protocol (Roche) and was normalized to total cellular DNA. Data are represented as % of control.

For series [4], the system named is MIA PaCa-2 cells. Put plainly: BrdU incorporation assay in MIA PaCa-2 cells. The format is cell-based. The settings on record: 3 uM. As to the method:
Impact of compound-40 on cell proliferation was further evaluated by BrdU incorporation assay. MIA PaCa-2 cells were grown for 4 days in presence or absence of compound-40 (3 uM). After treatment with vehicle control or compound-40 (3 uM), cells were exposed to BrdU. BrdU incorporation was measured using a commercially available kit (Roche) as per manufacturer's protocol.
On the technique in general: Incorporation of labelled thymidine or its analogues reports DNA synthesis.

The subject of series [5] is MCF7 breast cancer cell line. Nature of the series: MCF7 breast cancer cell line: growth, BrdU incorporation, ROS, DNA fragmentation. It counts as cell-based.
The mark [6] stands for this setting: 5-20 mg/kg b.wt, once daily, po.
[7] abbreviates: 5-20 mg/kg b.wt, once daily, po, 10 weeks.
[8] abbreviates: 5-20 mg/kg b.wt, once daily, po, OGTT after 9 weeks.

On to `CC1(C)CCC(C)(C)c2sc(N(CC3CC3)c3ccc(C(=O)O)cn3)nc21` [Compound 40, 6-[(Cyclopropylmethyl) (4,4,7,7-tetramethyl-4,5,6,7-tetrahydro-1,3-benzothiazol-2-yl)amino]pyridine-3-carboxylic acid], for which the “post-prandial blood glucose levels” value in series [1] (8 weeks) is given as “significantly reduced post-prandial blood glucose levels”. Moreover, in series [1] (end of week 7), the HbAlc levels result was “steep and dose dependent reduction”; the “glucose excursion during the prandial phase (24 h glucose profile)” value is given as “significantly reduced glucose excursion”. Besides, in series [2] (setting [6]), the HOMA-IR entry is on record as “improves HOMA-IR”, the “UCP1 expression levels in inguinal white adipose tissues” value is “significantly enhances”, the “circulating free fatty acid levels” value is “significant decrease” and the circulating glycerol levels entry is “significant decrease”. In series [2] (setting [6]), the ectopic fat accumulation result is given as “without increasing ectopic fat accumulation”, the “fasting TG” value was “significantly reduces fasting TG” and the fed cholesterol levels entry is reported as “significantly reduces fed cholesterol levels”. Moreover, in series [2] (setting [7]), the adipose depot weights result is given as “decrease in various adipose depot weights” and the body weight gain entry is listed as “significantly reduced body weight gain”. In addition, in series [2] (setting [8]), the “glucose disposal (OGTT)” value was “improves glucose disposal” and the “hyperinsulinemia (insulin levels)” value is “significantly reduces hyperinsulinemia”. For the same molecule, the non-shivering thermogenesis entry in series [2] (cold exposure 4° C., rectal temperature) is recorded as “significantly enhances non-shivering thermogenesis”. Further, in series [3], the Caspase-3 activity entry is listed as “significantly increased”. Besides, in series [4] (4 days), the BrdU incorporation entry is on record as “significantly reduced”. The “BrdU incorporation in RXRa over-expressing MIA PaCa-2” value in series [4] (RXRa over-expressing cells) was “further reduced the BrdU incorporation”. For the same molecule, in series [5] (MCF7), the BrdU incorporation entry was “significantly reduced”, the “apoptosis (DNA fragmentation)” value is recorded as “increased levels of apoptosis” and the “cellular stress (ROS levels)” value was “significant increase in cellular stress”. The cell growth entry in series [5] (MCF7, 3 uM) is reported as “reduced cell growth”.

Source of the values: patent US9862713B2, “Substituted bicyclic heteroaryl compounds as RXR agonists” (CONNEXIOS LIFE SCIENCES PVT. LTD., priority 2014, dated 2018).
